Legend:
[1] = target: Recombinant Human His6-USP1/His6-UAF1 Complex Protein (Homo sapiens (Human), UniProt O94782); assay: In-vitro enzymatic activity on USP1, first experimental method (Ub-Rho substrate, 15 min incubation); format: biochemical; conditions: incubation at room temperature 15 minutes, read-out: Inhibitory activities on USP-1, IC50
Procedure: Experimental Example 1 In-vitro Enzymatic Activities of Compounds of the Present Disclosure
First Experimental Method:
1) The compounds of the present disclosure were prepared to 10 mM with DMSO, and used as test stock solutions.
2) The stock solutions of the compounds of the present disclosure were diluted in a 4-fold gradient for 10 concentrations, with a maximum concentration of 10 mM.
3) The diluted compounds of the present disclosure were respectively transferred to 384-well plates (diluted by 1,000 folds) by Echo550, 2 multiple wells were set for each concentration, and a final concentration of DMSO was […].
1) An enzyme solution was prepared in 1×test buffer.
2) Ubiquitin Rhodamine 110 protein, CF (UB-Rho), was added into 1×determination buffer to prepare a substrate solution.
3) 10 μL of enzyme solution and 1×reaction buffer were transferred to a 384-well plate, and
4) incubated at room temperature for 15 minutes.
5) 10 μL of substrate solution was added into each well to start the reaction, centrifuged for 30 seconds, and shaken for 30 seconds.
1) Plate reading was carried out on SpectraMax Paradigm for 30 minutes, with an excitation wavelength of 480 nm and an emission wavelength of 540 nm.
2) Data on SpectraMax Paradigm were collected.
An inhibition (% inh) was calculated by the following formula:
[formula] • wherein, Max represented: a luminous signal intensity of a positive control well without adding the compound; • Min represented: a luminous signal intensity of a negative control well without adding the enzyme; and • Signal represented: a luminous signal intensity of the compound of the test sample.
IC50 was Calculated by the Following Formula:
[formula] • wherein, Y represented: % inhibition; and • X represented: the concentration of the compound.

[2] = parameters: species or system mice; conditions: mouse, in vivo, iv, 5 mg/kg
Procedure: Experiment Example 4 Pharmacokinetic Experiment of Compounds of the Present Disclosure 1. Test compounds: the compounds in the examples of the present disclosure, prepared according to the examples in the specification of the present disclosure. [table] (1) Intravenous administration (iv): 2.54 mg of compound 11 was taken, added with 0.495 ml of DMSO solution to be dissolved by vortex and ultrasound, added with 0.495 ml of PEG400 to be mixed by vortex, and then added with 1.484 ml of 28% HP-β-CD to be mixed by vortex to obtain a clear solution, with a concentration of 1 mg/ml. (2) Oral administration (po): 3.33 mg of compound 11 was taken, added with 3.243 ml of solvent (2% HPC+0.1% Tween 80), and ground evenly to obtain a uniform suspension, with a concentration of 1 mg/ml. The test compounds were administered intravenously (iv), with an administration dosage of 5 mg/kg and an administration volume of 5 ml/kg. The test compounds were administered orally (po), with an administration dosage of 10 mg/kg and an administration volume of 10 ml/kg. […] LC-MS/MS was to be analyzed.

[3] = tested on: MDA-MB-436 cells; assay: First in-vitro cytological inhibitory activity experiment (CelltiterGlo assay); format: cell-based, human; conditions: Experimental Example 2, 4,000 cells/well, 7 days, read-out: In-vitro cytological activities, IC50, MDA-MB-436
Procedure: Experimental Example 2 First Experiment of in-vitro Cytological Inhibitory Activities of Compounds of the Present Disclosure
A cell line used in the following experiment was as follows: MDA-MB-436: human breast cancer cells.
Experimental method (CelltiterGlo assay)
All cells were adherent cells, the medium was DMEM+10% FBS+1% ITS-G+16 μg/ml glutathione, and the cells were tested in a logarithmic growth phase.
Cells in the logarithmic growth phase were collected and counted by a […]. The cell viability was detected by a trypan blue exclusion method, and the cell viability was kept over 90%. The cell concentration was adjusted to be in a proper range, and 90 μL of cell suspension was added into a 96-well plate respectively.
2.1 DMSO stock solutions of the test compounds were prepared, and concentrations of the stock solutions of the test compounds were 10 mM respectively.
The stock solutions of the test compounds were serially diluted from 10 mM with DMSO in a 3-fold gradient for a total of 8 concentrations. Then, 2 µL of DMSO-gradient diluted compounds were respectively added into 198 µL of culture solutions to give the working stock solutions of the test compounds (a compound concentration was 10-fold higher than the final concentration, and a maximum concentration was […]).
10 μL of compound working stock solution was added into each well in the 96-well plate inoculated with cells (10-fold dilution, a final DMSO concentration was 0.1%).
Solvent control: 0.1% DMSO. […]
A CTG reagent was thawed and the 96-well plate was equilibrated to room temperature for 30 minutes, 60 μL of reagent (Celititer Glo assay kit) was added into each well, shaking was carried out for 2 minutes with a shaker (in the absence of light), and the plate was incubated at room temperature for 20 minutes (in the absence of light). Light signal values were read on a multi-functional microplate reader.
1) inhibition (%)=(DMSO solvent control well reading−test compound well reading)/(DMSO solvent control well reading−blank control well reading)×100%; […]

Sequence of Recombinant Human His6-USP1/His6-UAF1 Complex Protein (O94782 whole entry): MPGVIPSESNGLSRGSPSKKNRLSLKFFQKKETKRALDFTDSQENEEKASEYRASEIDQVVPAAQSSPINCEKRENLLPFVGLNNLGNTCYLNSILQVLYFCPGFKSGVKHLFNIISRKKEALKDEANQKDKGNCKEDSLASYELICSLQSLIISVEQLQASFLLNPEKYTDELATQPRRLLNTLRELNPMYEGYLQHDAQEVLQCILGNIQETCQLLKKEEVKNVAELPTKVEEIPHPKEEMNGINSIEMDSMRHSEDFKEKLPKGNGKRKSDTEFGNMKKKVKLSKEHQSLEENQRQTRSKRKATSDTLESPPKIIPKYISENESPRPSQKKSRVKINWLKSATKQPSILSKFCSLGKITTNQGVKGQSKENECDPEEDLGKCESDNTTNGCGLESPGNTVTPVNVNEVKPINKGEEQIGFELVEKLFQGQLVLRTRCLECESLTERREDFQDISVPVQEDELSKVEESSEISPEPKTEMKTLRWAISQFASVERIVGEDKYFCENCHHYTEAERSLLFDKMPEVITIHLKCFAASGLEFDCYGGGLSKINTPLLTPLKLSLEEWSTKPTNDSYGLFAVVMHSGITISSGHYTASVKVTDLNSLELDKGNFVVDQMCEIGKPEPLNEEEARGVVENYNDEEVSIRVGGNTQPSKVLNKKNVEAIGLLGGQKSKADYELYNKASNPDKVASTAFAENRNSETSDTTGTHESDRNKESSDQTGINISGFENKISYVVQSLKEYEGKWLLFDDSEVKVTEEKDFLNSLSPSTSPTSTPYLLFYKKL
Sequence of Recombinant Human His6-USP1/His6-UAF1 Complex Protein (Q8TAF3 whole entry partner): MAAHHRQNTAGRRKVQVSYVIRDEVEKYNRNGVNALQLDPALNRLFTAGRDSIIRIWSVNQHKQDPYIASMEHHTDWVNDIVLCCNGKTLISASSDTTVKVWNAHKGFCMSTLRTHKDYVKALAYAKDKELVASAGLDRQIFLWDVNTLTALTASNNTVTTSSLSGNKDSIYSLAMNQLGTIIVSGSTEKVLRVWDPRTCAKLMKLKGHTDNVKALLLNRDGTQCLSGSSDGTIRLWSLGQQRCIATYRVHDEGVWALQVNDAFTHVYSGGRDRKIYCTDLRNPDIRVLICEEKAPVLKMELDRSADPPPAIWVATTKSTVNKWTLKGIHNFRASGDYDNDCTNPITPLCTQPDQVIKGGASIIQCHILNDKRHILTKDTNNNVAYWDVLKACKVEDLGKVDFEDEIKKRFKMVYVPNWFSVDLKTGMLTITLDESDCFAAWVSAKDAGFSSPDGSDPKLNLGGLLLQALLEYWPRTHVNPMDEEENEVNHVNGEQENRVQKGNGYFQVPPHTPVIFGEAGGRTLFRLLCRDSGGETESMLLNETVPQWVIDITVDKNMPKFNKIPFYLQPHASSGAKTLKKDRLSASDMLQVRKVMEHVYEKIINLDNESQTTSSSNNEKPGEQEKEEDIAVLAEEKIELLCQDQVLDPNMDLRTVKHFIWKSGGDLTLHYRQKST

SMILES: COc1ncnc(C2CC2)c1-c1nc2c3c(nn(Cc4ccc(-c5nc(C(F)(F)F)cn5C)cc4)c3n1)CCCC2 [Compound 11, 4-(4-cyclopropyl-6-methoxypyrimidine-5-yl)-2-(4-(1-methyl-4-(trifluoromethyl)-1H-imidazol-2-yl)benzyl)-6,7,8,9-tetrahydro-2H-1,2,3,5-tetraazabenzo[cd]pyrene]
- IC50 [1]: 22 nM
- exposure [2]: more than 6,000 h*ng/ml
- IC50 [3]: 101 nM

Reference: patent publication US20240101566A1, “TRICYCLIC UBIQUITIN SPECIFIC PROTEASE 1 INHIBITOR AND USE THEREOF” (SHANDONG XUANZHU PHARMA CO., LTD., priority 2021, published 2024)
